Values of other authors as cited in patent US5500433A, “Method of treating drug abuse” (Merrell Pharmaceuticals Inc., priority 1995, dated 1996).

Assays:
thrombus formation = conditions: canine models
[1] = tested on: vascular smooth muscle cells; conditions: rabbit vascular smooth muscle cells
[2] = tested on: phospholipase C mediated hydrolysis of phosphoinositides; conditions: rabbit vascular smooth muscle cells
coronary vessels = conditions: patients with stable angina
[3] = tested on: preference for alcohol and cocaine; conditions: rodent

Row | SMILES | prevention of thrombus formation (thrombus formation) | effect on PDGF induced DNA synthesis [1] | inhibition of phospholipase C mediated hydrolysis of phosphoinositides [2] | effect on coronary vessel constriction (coronary vessels) | effect on preference for alcohol and cocaine [3]
1 | O=C(c1ccc(F)cc1)C1CCN(CCn2c(=O)[nH]c3ccccc3c2=O)CC1 [Ketanserin] | extremely effective in preventing thrombus formation | inhibited PDGF induced DNA synthesis | inhibited phospholipase C mediated hydrolysis of phosphoinositides | blocked coronary vessel constriction | –
2 | Cc1nc2sccn2c(=O)c1CCN1CCC(=C(c2ccc(F)cc2)c2ccc(F)cc2)CC1 [ritanserin] | – | – | – | – | abolished the preference for both alcohol and cocaine
3 | NCCc1c[nH]c2ccc(O)cc12 [serotonin] | – | stimulates PDGF induced DNA synthesis | – | induced constriction of the coronary vessels in these patients at all concentrations tested | –
